The source of these data is the Bradley open melting point set (2014).

Where “and” joins values, the source holds several entries; their conditions need not be identical. Identical values can stand only once.

Usually melting point stands for the temperature, or range, at which the solid turns liquid. Take `Oc1ccc(O)c(Cl)c1` [2-chlorohydroquinone]: the melting point came out at 102 °C.
With `N#CCC(=O)c1cccs1` [3-oxo-3-(2-thienyl)propionitrile] the figure was 134 °C; with `Nc1ccc2c(c1)OCCCO2` [3,4-dihydro-2h-1,5-benzodioxepin-7-amine], 79 °C.
With `CCNC(=O)OC(C)(C)C` [N-boc-ethylamine] the figure was 40 °C.
The same measure for `CCC(=O)c1cc(O)ccc1O` [2',5'-dihydroxypropiophenone]: 98 °C.
`O=C=Nc1ccc([N+](=O)[O-])cc1` [4-nitrophenyl isocyanate] yielded a melting point of 58 °C.
In turn, `COC(=O)c1ccc(I)c([N+](=O)[O-])c1` [methyl 4-iodo-3-nitrobenzoate] gave a melting point of 103 °C.
The same measure for `COc1cc(CO)ccc1O` [4-hydroxy-3-methoxybenzyl alcohol]: 114 °C; for `Oc1cc2ccccc2cc1O` [2,3-dihydroxynaphthalene]: 164 °C; for `N#Cc1cccc(C(F)(F)F)c1` [3-(trifluoromethyl)benzonitrile]: 16 °C.
`CC(C)(c1ccccc1)c1ccc(O)cc1` [4-(2-Phenylpropan-2-yl)phenol]: the melting point came out at 71.5 °C.
The molecule `CC[C@H](C)C(=O)O[C@H]1C[C@@H](C)C=C2C=C[C@H](C)[C@H](CC[C@@H]3C[C@@H](O)CC(=O)O3)[C@H]21` [lovastatin] yielded a melting point of 174 °C.
With `O/N=C/c1ccccc1O` [salicylaldoxime] the figure was 57 °C; with `O=C1CCC(c2ccccc2)(C2CCN(Cc3ccccc3)CC2)C(=O)N1` (centres undefined) [benzetimide], 156 °C; with `CC(C)c1cccc(C(C)C)c1` [m-diisopropylbenzene], -63 °C.
Molecule `CCCC(C)=O` [Pentan-2-one] showed a melting point of -78 °C.
The same measure for `O=C\1\C=C5/[C@@](/C=C/1)(C)[C@]2(F)[C@H]([C@H]3[C@](C[C@@H]2O)([C@@]4(OC(O[C@@H]4C3)(C)C)C(=O)CO)C)CC5` [triamcinolone acetonide]: 293 °C; for `O=C1C=C(O)C(=O)c2ccccc21` [2-Hydroxy-1,4-naphthoquinone]: 192 °C; for `O=C(CCC(=O)c1ccccc1)c1ccccc1` [1,2-dibenzoylethane]: 146 °C.
With `N#CCc1cccc(Br)c1` [m-bromophenylacetonitrile] the figure was 28 °C.
The same measure for `C1=CC2C(C1)[C@@H]1C=C[C@H]2C1` (some centres undefined) [Dicyclopentadiene]: 32.5 °C; for `C=CCCCCCC` [1-octene]: -102 °C.
`O=C(O)/C=C/C(=O)O` [fumaric acid] returned a melting point of 300 °C.
With `O=C(O)c1cc(-c2ccc(F)cc2F)ccc1O` [Diflunisal] the figure was 216 °C; with `NCCCCCC(=O)O` [Aminocaproic Acid], 205 °C.
As for `CCc1ccc(B(O)O)cc1` [4-ethylbenzeneboronic acid], the melting point was determined as 152 °C.
Molecule `COC1=C(OC)C(=O)C(C)=CC1=O` [2,3-dimethoxy-5-methyl-1,4-benzoquinone] had a melting point of 59 °C.
Molecule `CCSC` [ethyl methyl sulfide] showed a melting point of -106 °C.
The same measure for `CCCCC(C)=O` [2-hexanone]: -56 °C; for `COc1ccccc1C(=O)O` [2-methoxybenzoic acid]: 101 °C.
Turning to `c1ccc2c(c1)ccc1c3ccccc3ccc21` [chrysene], the melting point came out at 254 °C.
The same measure for `COc1cc(B(O)O)ccc1C` [3-methoxy-4-methylbenzeneboronic acid]: 193 °C; for `CC(=O)Oc1cccc(C(C)=O)c1` [3-acetoxy_acetophenone]: 44 °C.
With `N#Cc1cc(F)c(N)cc1F` [4-amino-2,5-difluorobenzonitrile] the figure was 93 °C; with `Nc1ccc([N+](=O)[O-])cc1[N+](=O)[O-]` [2,4-dinitroaniline], 178 °C; with `CCOC(=O)C(=O)Nc1ccccc1` [ethyl oxanilate], 67 °C.
The molecule `O=C(O)c1ccccc1O` [salicylic acid] gave a melting point of 157 °C.
The same measure for `O=C(O)Cc1ccc(Oc2ccccc2)cc1` [4-phenoxyphenylacetic acid]: 76 °C; for `CCn1c2ccccc2c2ccccc21` [9-ethylcarbazole]: 69 °C.
The same measure for `O=[N+]([O-])c1ncccc1Br` [3-bromo-2-nitropyridine]: 104 °C.
With `CP(C)(C)=S` [trimethylphosphine sulfide], the melting point came out at 156 °C.
Take `CC1=CCC2CC1C2(C)C` (centres undefined) [a-pinene]: the melting point is -62 °C.
With `Cc1ccc(B(O)O)c(Cl)c1` [2-chloro-4-methylbenzeneboronic acid] the figure was 200 °C.
Turning to `O=[N+]([O-])c1ccccc1O` [2-nitrophenol], the melting point was 44.8 °C and 44.5 °C and 44 °C.
`Cc1cc(Br)cn(C)c1=O` [5-bromo-1,3-dimethyl-2-pyridone]: the melting point came out at 106 °C.
Molecule `COc1ccc(O)cc1` [4-Methoxyphenol] had a melting point of 56 °C.
`CC(C)(N)CO` [2-Amino-2-methylpropan-1-ol] yielded a melting point of 30 °C.
`CCCCCNCCCCC` [N-Pentylpentan-1-amine] yielded a melting point of -44 °C.
The molecule `CCC(=O)c1ccc(Cl)cc1` [1-(4-Chlorophenyl)propan-1-one] displayed a melting point of 35.5 °C.
The same measure for `Cc1ccccc1CO` [2-methylbenzyl_alcohol]: 39 °C.
With `O=C1OC(Sc2ccccc2)c2ccccc21` (centres undefined) [3-(phenylsulfanyl)-2-benzofuran-1(3H)-one] the figure was 103 °C.
With `OB(O)c1ccccc1Br` [2-bromobenzeneboronic acid] the figure was 109 °C; with `Brc1ccc2ncsc2c1` [6-bromobenzothiazole], 53 °C.
`Cc1ccc(O)c(C(C)(C)C)c1` [2-tert-butyl-4-methylphenol] showed a melting point of 52 °C.
`COc1cccc(OC)c1OCC(=O)O` [2,6-dimethoxyphenoxyacetic acid] had a melting point of 81 °C.
Turning to `CSc1ccc(Br)cc1` [4-bromothioanisole], the melting point stood at 39 °C.
The same measure for `Nc1cc(Cl)ccc1O` [5-chloro-2-hydroxyaniline]: 143 °C; for `S=C=Nc1ccccc1I` [2-iodophenyl isothiocyanate]: 38 °C; for `c1ccc(P(C2CCCCC2)C2CCCCC2)cc1` [dicyclohexylphenylphosphine]: 60 °C.
For `CN(C)CCN1C(=O)c2ccccc2N(C)c2ccccc21` [dibenzepin], the melting point is 116 °C.
The same measure for `CC(=O)Nc1ccc(C(C)C)cc1` [4'-isopropylacetanilide]: 104 °C.
With `COC(=O)/C=C/C(=O)OC` [Dimethyl (2E)-but-2-enedioate] the figure was 104 °C.
With `O=C(O)c1ccc([N+](=O)[O-])cc1` [p-nitrobenzoic_acid] the figure was 241 °C.
On to `O=C1CCCC1` [cyclopentanone], for which the melting point is -51 °C.
